Test results from article PMC5074515 (PLoS ONE, 2016).
≈ marks a conversion by molar mass, not a printed value. Like-named read-outs stand apart in the source and are kept apart here.

Tests used:
Mtb H37Rv = test: In vitro qHTS assay against Mtb H37Rv (IC90); assay type: cell-based, M. tuberculosis; conditions: for IC90: read-out: Mtb H37Rv IC90; for fold more active against Mtb H37Rv than corresponding analog: 48 vs 23, 57 vs 56, 60 vs 24
Mtb H37Ra (ATCC 25177) = test: In vitro screen versus Mtb H37Ra (Alamar blue microdilution broth assay, MIC99); assay type: cell-based, M. tuberculosis; conditions: Mycobacterium tuberculosis; lowest drug concentration that completely inhibited growth; read-out: Mtb H37Ra MIC99
Method: The initial screening set and selected other compounds were tested for their inhibitory activity against Mtb H37Ra (ATCC 25177) and MAC NJ211 strains. Screening was performed at 1.28 and 12.8 μg/mL in Middlebrook 7H9 broth supplemented with 0.2% glycerol and ADC enrichment using a colorimetric (Alamar blue) microdilution broth assay by reported methods.[15]

[1] = Mycobacterium tuberculosis, H37RV, concentration that inhibits bacterial growth by 90%
[2] = concentration that inhibits bacterial growth by 90%

Compound	IC90 (Mtb H37Rv; [1])	melting point	also measured
CSc1ccc(/C=C2/C(C)=C(C(C)C(=O)N3CCC[C@H]3CN3CCCC3)c3cc(F)ccc32)cc1 (stereo partly drawn) [Compound 52, 2-((Z)-5-Fluoro-2-methyl-1-(4-(methylthio)benzylidene)-1H-inden-3-yl)-1-((S)-2-(pyrrolidin-1-ylmethyl)pyrrolidin-1-yl)propan-1-one]	2.55 ± 0.03 µM	80 to 82 °C	–
CC1=C(CC(=O)N2CCC[C@H]2CN2CCCC2)c2cc(F)ccc2/C1=C\c1nc2ccccc2s1 [Compound 43, (S,Z)-2-(1-(Benzo[d]thiazol-2-ylmethylene)-5-fluoro-2-methyl-1H-inden-3-yl)-1-(2-(pyrrolidin-1-ylmethyl)pyrrolidin-1-yl)ethanone]	3.68 ± 0.11 µM	79 to 81 °C	–
CCN(CC)CCCNC(=O)CC1=C(C)/C(=C/c2ccc(SC)cc2)c2ccc(F)cc21 [Compound 21, (Z)-N-(3-(Diethylamino)propyl)-2-(5-fluoro-2-methyl-1-(4-(methylthio)benzylidene)-1H-inden-3-yl)acetamide]	4.36 ± 0.07 µM	78 to 81 °C	–
CSc1ccc(/C=C2/C(C)=C(C(C)C(=O)NCCN3CCCCC3)c3cc(F)ccc32)cc1 (centres unmarked) [Compound 49, (Z)-2-(5-Fluoro-2-methyl-1-(4-(methylthio)benzylidene)-1H-inden-3-yl)-N-(2-(piperidin-1-yl)ethyl)propanamide]	1.99 ± 0.06 µM	–	–
CC1=C(CC(=O)N(C)CCN(C)C)c2cc(F)ccc2/C1=C\c1nc2ccccc2s1 [Compound 39, (Z)-2-(1-(Benzo[d]thiazol-2-ylmethylene)-5-fluoro-2-methyl-1H-inden-3-yl)-N-(2-(dimethylamino)ethyl)-N-methylacetamide]	9.97 ± 0.33 µM	103 to 106 °C	–
CCN(CC)CCNC(=O)CC1=C(C)/C(=C/c2nc3ccccc3s2)c2ccc(F)cc21 [Compound 40, (Z)-2-(1-(Benzo[d]thiazol-2-ylmethylene)-5-fluoro-2-methyl-1H-inden-3-yl)-N-(2-(diethylamino)ethyl)acetamide]	3.47 ± 0.04 µM	127 to 130 °C	–
CSc1ccc(/C=C2/C(C)=C(CC(=O)NCCCN3CCCCC3C)c3cc(F)ccc32)cc1 (centres unmarked) [Compound 25, (Z)-2-(5-Fluoro-2-methyl-1-(4-(methylthio)benzylidene)-1H-inden-3-yl)-N-(3-(2-methylpiperidin-1-yl)propyl)acetamide]	5.41 ± 0.11 µM	84 to 86 °C	–
CSc1ccc(/C=C2/C(C)=C(CC(=O)N3CCN(CCCN(C)C)CC3)c3cc(F)ccc32)cc1 [Compound 31, (Z)-1-(4-(3-(Dimethylamino)propyl)piperazin-1-yl)-2-(5-fluoro-2-methyl-1-(4-(methylthio)benzylidene)-1H-inden-3-yl)ethanone]	9.55 ± 0.31 µM	131 to 134 °C	–
CSc1ccc(/C=C2/C(C)=C(C(C)C(=O)NCCCN3CCCCC3C)c3cc(F)ccc32)cc1 (centres unmarked) [Compound 50, (Z)-2-(5-Fluoro-2-methyl-1-(4-(methylthio)benzylidene)-1H-inden-3-yl)-N-(3-(2-methylpiperidin-1-yl)propyl)propanamide]	1.64 ± 0.07 µM	87 to 89 °C	–
COC(=O)[C@H](C)NC(=O)CC1=C(C)/C(=C/c2ccc(SC)cc2)c2ccc(F)cc21 [Compound 37, (S,Z)-Methyl 2-(2-(5-fluoro-2-methyl-1-(4-(methylthio)benzylidene)-1H-inden-3-yl)acetamido)propanoate]	3.04 ± 0.1 µM	151 to 154 °C	–
CSc1ccc(/C=C2/C(C)=C(C(C)C(=O)N(C)CCN(C)C)c3cc(F)ccc32)cc1 (centres unmarked) [Compound 45, (Z)-N-(2-(Dimethylamino)ethyl)-2-(5-fluoro-2-methyl-1-(4-(methylthio)benzylidene)-1H-inden-3-yl)-N-methylpropanamide]	5.95 ± 0.06 µM	–	–
CSc1ccc(/C=C2/C(C)=C(CC(=O)N3CCC[C@H]3CN3CCCC3)c3cc(F)ccc32)cc1 [Compound 29, (S,Z)-2-(5-Fluoro-2-methyl-1-(4-(methylthio)benzylidene)-1H-inden-3-yl)-1-(2-(pyrrolidin-1-ylmethyl)pyrrolidin-1-yl)ethanone]	4.06 ± 0.03 µM	101 to 104 °C	–
CSc1ccc(/C=C2/C(C)=C(C(C)C(=O)N3CCN(CCCN(C)C)CC3)c3cc(F)ccc32)cc1 (centres unmarked) [Compound 54, (Z)-1-(4-(3-(Dimethylamino)propyl)piperazin-1-yl)-2-(5-fluoro-2-methyl-1-(4-(methylthio)benzylidene)-1H-inden-3-yl)propan-1-one]	3.72 ± 0.06 µM	78 to 80 °C	–
CCN1CCC[C@H]1CNC(=O)CC1=C(C)/C(=C/c2ccc(SC)cc2)c2ccc(F)cc21 [Compound 28, (S,Z)-N-((1-Ethylpyrrolidin-2-yl)methyl)-2-(5-fluoro-2-methyl-1-(4-(methylthio)benzylidene)-1H-inden-3-yl)acetamide]	3.98 ± 0.03 µM	74 to 76 °C	–
CSc1ccc(/C=C2/C(C)=C(C(C)C(=O)NCCN(C)C)c3cc(F)ccc32)cc1 (centres unmarked) [Compound 44, (Z)-N-(2-(Dimethylamino)ethyl)-2-(5-fluoro-2-methyl-1-(4-(methylthio)benzylidene)-1H-inden-3-yl)propanamide]	13.6 ± 0.89 µM	–	fold less active against Mtb H37Rv than desmethyl analog (Mtb H37Rv; 44 vs 18): 2 fold
CSc1ccc(/C=C2/C(C)=C(C(C)C(=O)N(C)CCN(C)C(=O)[C@@H](N)C(C)C)c3cc(F)ccc32)cc1 (stereo partly drawn) [Compound 57, (2S)-2-Amino-N-(2-(2-((Z)-5-fluoro-2-methyl-1-(4-(methylthio)benzylidene)-1H-inden-3-yl)-N-methylpropanamido)ethyl)-N,3-dimethylbutanamide]	0.74 µM	60 to 62 °C	fold more active against Mtb H37Rv than corresponding analog (Mtb H37Rv): 6 fold
CSc1ccc(/C=C2/C(C)=C(C(C)C(=O)N3CCN(c4ccncc4)CC3)c3cc(F)ccc32)cc1 (centres unmarked) [Compound 55, (Z)-2-(5-Fluoro-2-methyl-1-(4-(methylthio)benzylidene)-1H-inden-3-yl)-1-(4-(pyridin-4-yl)piperazin-1-yl)propan-1-one]	2.89 ± 0.09 µM	–	–
CC1=C(CC(=O)NCCN(C)C)c2cc(F)ccc2/C1=C\c1nc2ccccc2s1 [Compound 38, (Z)-2-(1-(Benzo[d]thiazol-2-ylmethylene)-5-fluoro-2-methyl-1H-inden-3-yl)-N-(2-(dimethylamino)ethyl)acetamide]	4.75 ± 0.05 µM	132 to 135 °C	–
CSc1ccc(/C=C2/C(C)=C(CC(=O)NCc3ccccc3)c3cc(F)ccc32)cc1 [Compound 34, (Z)-N-Benzyl-2-(5-fluoro-2-methyl-1-(4-(methylthio)benzylidene)-1H-inden-3-yl)acetamide]	> 100 µM	171 to 174 °C	Mtb H37Rv IC90 (Mtb H37Rv; [2]): inactive
CSc1ccc(/C=C2/C(C)=C(CC(=O)NCCCn3ccnc3)c3cc(F)ccc32)cc1 [Compound 33, (Z)-N-(3-(1H-Imidazol-1-yl)propyl)-2-(5-fluoro-2-methyl-1-(4-(methylthio)benzylidene)-1H-inden-3-yl)acetamide]	1.18 ± 0.01 µM	103 to 105 °C	–
CCN(CC)CCNC(=O)C(C)C1=C(C)/C(=C/c2ccc(SC)cc2)c2ccc(F)cc21 (centres unmarked) [Compound 46, (Z)-N-(2-(Diethylamino)ethyl)-2-(5-fluoro-2-methyl-1-(4-(methylthio)benzylidene)-1H-inden-3-yl)propanamide]	4.19 ± 0.2 µM	75 to 77 °C	–
CNCCN(C)C(=O)C(C)C1=C(C)/C(=C/c2ccc(SC)cc2)c2ccc(F)cc21 (centres unmarked) [Compound 48, (Z)-2-(5-Fluoro-2-methyl-1-(4-(methylthio)benzylidene)-1H-inden-3-yl)-N-methyl-N-(2-(methylamino)ethyl)propanamide]	2.11 ± 0.08 µM	–	fold more active against Mtb H37Rv than corresponding analog (Mtb H37Rv): 4 fold
CCN1CCC[C@H]1CNC(=O)CC1=C(C)/C(=C/c2nc3ccccc3s2)c2ccc(F)cc21 [Compound 42, (S,Z)-2-(1-(Benzo[d]thiazol-2-ylmethylene)-5-fluoro-2-methyl-1H-inden-3-yl)-N-((1-ethylpyrrolidin-2-yl)methyl)acetamide]	5.46 ± 0.12 µM	168 to 171 °C	–
CSc1ccc(/C=C2/C(C)=C(CC(=O)NCCC3CCCN3C)c3cc(F)ccc32)cc1 (centres unmarked) [Compound 27, (Z)-2-(5-Fluoro-2-methyl-1-(4-(methylthio)benzylidene)-1H-inden-3-yl)-N-(2-(1-methylpyrrolidin-2-yl)ethyl)acetamide]	4.34 ± 0.16 µM	–	–
CC(=O)O[C@H]1C(=O)[C@@]2(C)[C@H]([C@H](OC(=O)c3ccccc3)[C@]3(O)C[C@H](OC(=O)[C@H](O)[C@@H](NC(=O)c4ccccc4)c4ccccc4)C(C)=C1C3(C)C)[C@]1(OC(C)=O)CO[C@@H]1C[C@@H]2O [Compound 14, Taxol]	–	–	MIC99 (Mtb H37Ra (ATCC 25177)): 16 µg/mL (≈ 18.7 µM)
(Z)-N-(3-(Dibutylamino)propyl)-2-(5-fluoro-2-methyl-1-(4-(methylthio)benzylidene)-1H-inden-3-yl)acetamide [Compound 22]	–	–	IC90 (Mtb H37Rv; [2]): 0.85 µM
CCN1CCC[C@H]1CNC(=O)C(C)C1=C(C)/C(=C/c2ccc(SC)cc2)c2ccc(F)cc21 (stereo partly drawn) [Compound 51, N-(((S)-1-Ethylpyrrolidin-2-yl)methyl)-2-((Z)-5-fluoro-2-methyl-1-(4-(methylthio)benzylidene)-1H-inden-3-yl)propanamide]	2.41 ± 0.04 µM	–	–
CC1=C(CC(=O)NCCN2CCCC2)c2cc(F)ccc2/C1=C\c1nc2ccccc2s1 [Compound 41, (Z)-2-(1-(Benzo[d]thiazol-2-ylmethylene)-5-fluoro-2-methyl-1H-inden-3-yl)-N-(2-(pyrrolidin-1-yl)ethyl)acetamide]	6.7 ± 0.04 µM	–	–
